Results reported in PubChem BioAssay (NCI).
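48-hour exposure; five concentrations; linearly interpolated endpoints. Abbreviation: GI50, concentration required for 50% inhibition of growth. TGI: concentration producing complete growth inhibition.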

What was measured:
Assay in all cases: DTP human tumour cell line panel, 48 h
786-0 renal = system: 786-0 renal
A549 NSCLC = system: A549 NSCLC
ACHN renal = system: ACHN renal
BT-549 breast = system: BT-549 breast
CAKI-1 renal = system: CAKI-1 renal
CCRF-CEM leukemia = system: CCRF-CEM leukemia
COLO 205 colon = system: COLO 205 colon
DU-145 prostate = system: DU-145 prostate
EKVX NSCLC = system: EKVX NSCLC
HCC-2998 colon = system: HCC-2998 colon
HCT-116 colon = system: HCT-116 colon
HCT-15 colon = system: HCT-15 colon
HL-60(TB) leukemia = system: HL-60(TB) leukemia
HS 578T breast = system: HS 578T breast
HT29 colon = system: HT29 colon
IGROV1 ovarian = system: IGROV1 ovarian
K-562 leukemia = system: K-562 leukemia
KM12 colon = system: KM12 colon
LOX IMVI melanoma = system: LOX IMVI melanoma
M14 melanoma = system: M14 melanoma
MALME-3M melanoma = system: MALME-3M melanoma
MCF7 breast = system: MCF7 breast
MDA-MB-231 breast = system: MDA-MB-231 breast
MDA-MB-435 = system: MDA-MB-435
MOLT-4 leukemia = system: MOLT-4 leukemia
NCI-H226 lung = system: NCI-H226 lung
NCI-H460 lung = system: NCI-H460 lung

With `CC(C)=C[C@@H]1C[C@H](C)[C@H]2CC[C@H](C)C3=C2[C@](O)(OC3=O)[C@]1(C)O` the GI50 (786-0 renal) was > 100 µM, the TGI (786-0 renal) was > 100 µM and the GI50 (A549 NSCLC) was > 100 µM. The TGI (A549 NSCLC) was > 100 µM, the GI50 (ACHN renal) was > 100 µM and the TGI (ACHN renal) was > 100 µM. For the same molecule, the GI50 (BT-549 breast) was > 100 µM, the TGI (BT-549 breast) was > 100 µM and the GI50 (CAKI-1 renal) was > 100 µM. The TGI (CAKI-1 renal) was > 100 µM, the GI50 (CCRF-CEM leukemia) was > 100 µM and the TGI (CCRF-CEM leukemia) was > 100 µM. The GI50 (COLO 205 colon) was > 100 µM, the TGI (COLO 205 colon) was > 100 µM and the GI50 (DU-145 prostate) was > 100 µM. The TGI (DU-145 prostate) was > 100 µM, the GI50 (EKVX NSCLC) was > 100 µM and the TGI (EKVX NSCLC) was > 100 µM. The GI50 (HCC-2998 colon) was > 100 µM, the TGI (HCC-2998 colon) was > 100 µM and the GI50 (HCT-116 colon) was > 100 µM. The TGI (HCT-116 colon) was > 100 µM, the GI50 (HCT-15 colon) was > 100 µM and the TGI (HCT-15 colon) was > 100 µM. For the same molecule, the GI50 (HL-60(TB) leukemia) was > 100 µM, the TGI (HL-60(TB) leukemia) was > 100 µM and the GI50 (HS 578T breast) was > 100 µM. The TGI (HS 578T breast) was > 100 µM, the GI50 (HT29 colon) was > 100 µM and the TGI (HT29 colon) was > 100 µM. The GI50 (IGROV1 ovarian) was > 100 µM, the TGI (IGROV1 ovarian) was > 100 µM and the GI50 (K-562 leukemia) was > 100 µM. The TGI (K-562 leukemia) was > 100 µM, the GI50 (KM12 colon) was > 100 µM and the TGI (KM12 colon) was > 100 µM. For the same molecule, the GI50 (LOX IMVI melanoma) was > 100 µM, the TGI (LOX IMVI melanoma) was > 100 µM and the GI50 (M14 melanoma) was > 100 µM. For the same molecule, the TGI (M14 melanoma) was > 100 µM, the GI50 (MALME-3M melanoma) was > 100 µM and the TGI (MALME-3M melanoma) was > 100 µM. The GI50 (MCF7 breast) was 71.5 µM, the TGI (MCF7 breast) was > 100 µM and the GI50 (MDA-MB-231 breast) was > 100 µM. The TGI (MDA-MB-231 breast) was > 100 µM, the GI50 (MDA-MB-435) was > 100 µM and the TGI (MDA-MB-435) was > 100 µM. For the same molecule, the GI50 (MOLT-4 leukemia) was > 100 µM, the TGI (MOLT-4 leukemia) was > 100 µM and the GI50 (NCI-H226 lung) was > 100 µM. For the same molecule, the TGI (NCI-H226 lung) was > 100 µM and the GI50 (NCI-H460 lung) was > 100 µM.
